Assays:
Assay type in all cases: cell-based, human
STAT3 phosphorylation [1] = test: Constitutive STAT3 phosphorylation in U266 cells (Western blot)
Method: U266 cells (2×10^6) were treated with the indicated concentrations of curcumin for 1 h, or treated with 50 μM curcumin for the indicated durations and levels of phosphorylated-STAT3 (upper panel) and STAT3 (lower panel) were examined in whole cell extracts by Western Blotting. […] U266 cells (2×10^6) were treated with 50 μM curcumin for indicated durations, and examined for phosphorylated and nonphosphorylated-STAT3, and STAT5. […] U266 cells (2×10^6) were preincubated with curcumin (50 μM) for indicated durations before treatment with IFN-α (10 ng/ml) for additional 30 min and then examined for phosphorylated and nonphosphorylated-STAT1.
U266 cells (2×10^6 cells) were treated with 50 μM curcumin for the indicated durations (left panels) or treated for 1 h and washed with PBS two times to remove curcumin before resuspending in fresh medium. Cells were removed at indicated times and lysed to prepare the whole cell extract (right panels). Thirty micrograms of whole cell extracts were resolved on 7.5% SDS-PAGE, electrotransferred to a nitrocellulose membrane, probed for the phosphorylated-STAT3 (upper panels) and stripped and reprobed for STAT3 (middle panels) and β-actin (lower panels).
Thirty micrograms of whole-cell extract was resolved on 7.5% SDS-PAGE, electrotransferred to a nitrocellulose membrane, probed for the phospho-STAT3 (upper panel), stripped, and reprobed for STAT3 (middle panel) and β-actin (lower panel).
For detection of STAT proteins, whole-cell extracts were prepared by lysing the curcumin-treated cells in lysis buffer (20 mM Tris, pH 7.4, 250 mM NaCl, 2 mM EDTA, pH 8.0, 0.1% Triton-X100, 0.01 mg/ml aprotinin, 0.005 mg/ml leupeptin, 0.4 mM PMSF, and 4 mM NaVO4). Lysates were then spun at 14000 rpm for 10 min to remove insoluble material, and resolved on a 7.5% gel. After electrophoresis, the proteins were electrotransferred to a nitrocellulose membrane, blocked with 5% nonfat milk, and probed with anti-STAT antibodies (1:1000) overnight at 4° C. The blot was washed, exposed to HRP-conjugated secondary antibodies for 1 h, and finally examined by chemiluminescence (ECL, Amersham Pharmacia Biotech. Arlington Heights, Ill.).
Whether curcumin inhibits the constitutive STAT3 phosphorylation in U266 was investigated. U266 cells were incubated either with different concentrations of curcumin for 1 h or with 50 μM curcumin for different times. Curcumin inhibited the constitutively active STAT3 in a dose-(FIG. 1A) and time-(FIG. 1B) dependent manner. Curcumin-induced inhibition could be observed as early as 10 min and with a concentration as low as 10 μM.
Whether curcumin-induced inhibition of STAT3 phosphorylation was reversible was further examined. U266 cells were first treated for 60 min with curcumin, and then the cells were washed twice with PBS to remove curcumin. The cells were then cultured in the fresh medium for various durations, and the levels of phosphorylated STAT3 were measured.
In comparison, treatment of cells with 50 μM curcumin for 60 minutes was sufficient to inhibit STAT3 phosphorylation (see FIGS. 1A and 1B).

STAT3 phosphorylation [2] = test: IL-6-induced STAT3 phosphorylation in JMAR cells (Western blot)
Method: JMAR cells (2×10^6 cells) were treated with IL-6 (10 ng/ml) for the indicated time and whole cell extracts were prepared. These extracts (30 μg) were resolved on 7.5% SDS-PAGE, electrotransferred to a nitrocellulose membrane and probed for p-STAT3 (upper panel) and stripped and re-probed for STAT3 (lower panel). […] JMAR cells were pretreated with curcumin (50 μM) for indicated durations and stimulated with IL-6 (10 ng/ml) for 10 mins and whole cell extract prepared and probed as mentioned earlier.
JMAR cells were treated with IL-6 for different durations and the levels of p-STAT3 and STAT3 were examined. Treatment with IL-6 as early as 5 mins induced STAT3 phosphorylation in JMAR cells (FIG. 14A, upper panel). However, STAT3 levels were unaffected (FIG. 14A, lower panel).
Further, since IL-6 induced STAT3 phosphorylation in JMAR cells, the ability of curcumin to inhibit this STAT3 phosphorylation was also examined. JMAR cells were pretreated with curcumin for different durations and stimulated with IL-6 for 10 minutes. Both the status of p-STAT3 and STAT3 were determined in the whole cell extracts of these cells. Treatment with curcumin for as early as 30 minutes led to decline in the phosphorylation of STAT3 which declined further with increased exposure to curcumin. Exposure to curcumin for 2 hours inhibited STAT3 phosphorylation in JMAR cells (FIG. 14B, upper panel). The STAT3 levels were unaffected by this treatment (FIG. 14B, lower panel).

MM.1 cells = test: IL-6-induced proliferation of MM.1 cells; settings: curcumin 10 μM, 48 h, serum-free
Method: FIGS. 7A-B show& that IL-6 induces proliferation of human multiple myeloma cells and curcumin inhibits it. […] Cell proliferation assays were performed as described below. Results are shown as mean (±s.d.) of percent [^3H] thymidine incorporation or percent proliferation by MTT of triplicate cultures compared to the untreated control.
The antiproliferative effects of curcumin against different multiple myeloma cell lines were determined by the MTT dye uptake method as described earlier (28). Briefly, the cells (5000/well) were incubated in triplicate in a 96-well plate in the presence or absence of indicated test samples in a final volume of 0.1 ml for 24 h at 37° C. […] The OD at 570 nm was measured using a 96-well multiscanner autoreader (Dynatech MR 5000), with the extraction buffer serving as blank. Percent cell viability cell viability was calculated using the following formula: Percent cell viability=(OD of the experiment samples/OD of the control)×100.
The antiproliferative effects of curcumin were also monitored by the thymidine incorporation method. […] Six hours before the completion of experiment, cells were pulse treated with 0.5 μCi [^3H]thymidine, and the uptake of [^3H]thymidine was monitored using a Matrix-9600 β-counter (Packard Instruments, Downers Grove, Ill.). […]
Whether curcumin suppresses the proliferative effects of IL-6 was determined.

[3] = 50 μM curcumin, IL-6 10 ng/ml 10 min

COc1cc(/C=C/C(=O)CC(=O)/C=C/c2ccc(O)c(OC)c2)ccc1O [curcumin, diferuloylmethane]
dose needed to suppress STAT3 phosphorylation (comparison AG490 vs curcumin) (STAT3 phosphorylation [1]): 10 µM
earliest time at which inhibition of constitutive STAT3 phosphorylation could be observed (STAT3 phosphorylation [1]; U266 cells, 50 μM curcumin): 10 min
treatment time sufficient to inhibit STAT3 phosphorylation (STAT3 phosphorylation [1]; U266 cells, 50 μM curcumin): 60 min
inhibition of constitutive STAT3 phosphorylation (STAT3 phosphorylation [1]; U266 cells, 50 μM, 1 h): completely inhibited
lowest concentration at which inhibition of constitutive STAT3 phosphorylation could be observed (STAT3 phosphorylation [1]; U266 cells, 1 h): 10 µM
time to complete reversal of STAT3 phosphorylation inhibition after removal of curcumin (STAT3 phosphorylation [1]; U266 cells, 60 min treatment then washed): ≤ 24 h
overall expression of STAT3 protein (STAT3 phosphorylation [1]; U266 cells, curcumin treatment): did not alter the overall expression of STAT3 protein
exposure needed to suppress STAT3 phosphorylation (comparison AG490 vs curcumin) (STAT3 phosphorylation [1]; curcumin): 30 min
earliest treatment time leading to decline of IL-6-induced STAT3 phosphorylation (STAT3 phosphorylation [2]; [3]): 30 min
exposure that inhibited IL-6-induced STAT3 phosphorylation (STAT3 phosphorylation [2]; [3]): 2 h
STAT3 levels (STAT3 phosphorylation [2]; curcumin pretreatment plus IL-6): unaffected
IL-6-induced cell proliferation in MM.1 cells (MM.1 cells): inhibited IL-6-induced cell proliferation
